How the values were obtained:
FVB mice = assay: General toxicity of IMSs in mice; format: in vivo; details: intraperitoneally every other day for 2 weeks
Method: (§1) IMSs (DPIM and DBZIM) were dissolved in saline, and administered to Friend virus B-Type (FVB) mice (weighing ˜25-30 g) intraperitoneally every other day for 2 weeks. The dosages were 0, 200, 300, 350, 400 and 500 mg/kg for DPIM, and 0, 10, 30, 35, 40 and […] for DBZIM. The injection volume was maintained at 100-160 μl. The mortality rate of mice was assessed after the treatment. The animal experimental protocol was approved by the Institutional Animal Care and Use Committee (IACUC) of Biological Resource Center (BRC) at Biopolis, Singapore.
(§2) In the preliminary toxicity studies, two forms of IMSs were selected for in vivo testing with FVB inbred mice. For DBZIM, the lethal dosage was 50 mg/kg and LD50 was estimated to be 30-40 mg/kg. For DPIM, the lethal dosage was 500 mg/kg and LD50 was ˜300-400 mg/kg.

[1] = General toxicity of IMSs in mice; format: in vivo; details: mouse, in vivo, ip; FVB mice, intraperitoneally every other day for 2 weeks; estimated
Method: as §1, §2

HLE cells [2] = assay: Apoptosis assay (Annexin V-FITC/PI flow cytometry); format: cell-based, human; details: 72 h, IBN-15 60 μM, IBN-19 90 μM, IBN-24 90 μM, IBN-25 30 μM, IBN-32 20 μM, DMSO 0.045%
Method: FIG. 36. IMSs induce apoptosis in Hepatocarcinoma cells. A) Cells were treated with vehicle and IBN 15, IBN 19, IBM 24, IBN 25 and IBN 32 for 72 h, and apoptosis was quantified using Annexin V-FITC/PI staining followed by flow cytometric analysis. 10,000 cells were detected for every sample. Living cells are in the bottom left quadrants (FITC− and PI−), early apoptotic cells in the bottom right quadrants (FITC+ and PI−), and late apoptotic cells in the upper right quadrants (apoptotic FITC+ and PI+). B) The percentage of apoptotic cells with respect to different IMSs.
To determine apoptosis analysis, 4×10^5 cells were plated in 10 cm dish. […] The floating and trypsinized adherent cells were collected and the apoptosis was quantified using Annexin V-FITC reagent (BD Biosciences Pharmingen) and PI (Invitrogen) following the manufacturer's protocol. Briefly, the cells were washed twice with cold PBS and then resuspend cell in 100 μl of × binding buffer containing a 10 μl of Annexin V-FITC (BD-Pharminagen) and 2 μl of PI from the stock of 100 μg/ml. The cells were gently vortexed and incubated for 15 min at room temperature in the dark. Subsequently 400 μl of 1× binding buffer were added to each tube, and the samples were immediately analyzed by FACScan flow cytometer (Becton Dickinson). The fluorescent signals of the Annexin-V conjugate and PI were detected at channels of fluorescence intensity FL1 and FL2 (BD LSR II with software BD).
Cells undergoing apoptosis would stain positive for Annexin and negative for PI (quadrant 4, Q4). Cells which stained positive for both Annexin V-FITC and PI (Q2) are either at the end stage of apoptosis or undergoing necrosis, and those which stained negative for both Annexin V-FITC and PI (Q3) were alive or undergoing undetectable apoptosis. In contrast, cell debris stained only for PI (Q1).

p53 = assay: Immunostaining and confocal microscopy of p53; format: cell-based, human; details: HLE, 48 h
Method: FIG. 39. IMSs-induced apoptosis was accompanied by accumulation of p53 in the nucleus. HLE cells were treated with the indicated dose of IBN 19 and IBN 24 for 48 h. The treated cells were fixed with 4% formaldehyde, immunostained with anti-p53 (green fluorescence) and DAPI (blue fluorescence), and analysed by confocal microscopy.
For immunostaining, HLE cells were seeded at a density of 1×10^4 in 8 well chamber slide. After 24 h incubation, the cells were replaced with 200 μl fresh 10% DMEM medium and then treated with 60 μM of IBN-15, 90 μM of IBN-19, 90 μM of IBN-24, 30 μM of IBN-25 and 20 μM of IBN-32 and 0.045% DMSO as control for 24 and 48 h. After washing, cells were fixed in 4% formaldehyde for 15 mins and permeabilized with 0.5% Triton X-100 in PBS for 10 mins. The cells were then blocked for 60 min in PBS containing 3% bovine serum albumin and then incubated for 1 h with a mouse antibody against nucleolin (MS-3, Santa Cruz; 1:100 in blocking buffer). After washing extensively with PBS, the cells were then incubated for 1 h at room temperature in dark with a FITC-conjugated antibody against mouse IgG (1:20 ilution). The slides were mounted with a VectaShield medium containing DAPI (Vector Laboratories, Burlingame, Calif.). Microscopy was performed with a Zeiss LSM 510 Meta (upright stand) confocal microscope.

HLE cells [3] = assay: Cell cycle analysis (PI flow cytometry); format: cell-based, human; details: 72 h; for cells in the S phase: at respective IC-50, control 24%; for cells in the G2/M phase: at respective IC-50, control 30%; for cells in the G1 phase: at respective IC-50, control 50%
Method: FIG. 37. IMSs arrest Hepatocarcinoma cells. Cells were treated with vehicle and IBN 15, IBN 19, IBN 24, IBN 25 and IBN 32 for 72 h, and cell cycle distribution was assessed by flow cytometry. A) Example FACS profiles of propidium iodide-stained control cells, and cells treated with IMSs respectively. B) % of cells in cell cycle phase C) % of cells in subG0 population. Each value is the mean±S.D. of three determinations.
To perform cell cycle distribution analysis, 4×10^5 cells were plated in 10 cm dish. The cells (70% confluence) were serum-starved for 24 h to synchronize them in the G0 phase of the cell cycle. After 24 h incubation, the cells were replaced with fresh 10% DMEM medium and then treated 60 μM of IBN-15, 90 μM of IBN-19, 90 μM of IBN-24, 30 μM of […] and 20 μM of IBN-32) and 0.045% DMSO as control for 72 h. The floating and trypsinized adherent cells were collected and washed with PBS. The cell pellets were resuspended in 1 ml of PBS and fixed by the addition of 70% ice-cold ethanol and stored at −20° C. After incubation for 24 hr, the cells were re-pelleted by centrifugation, the cells were washed once with PBS and resuspended in 0.1 mL of PBS containing 100 μg/ml of RNase and then incubated at 37° C. for 15 min. Finally, the cells were stained with 0.5 ml of PI solution (100 μg/mL in PBS) for 30 min. Cell cycle distribution was detected by a BD FACS array flow cytometer (Becton Dickinson). Cells with sub-G0 DNA were classified as apoptotic cells.

| SMILES | lethal dosage (FVB mice) [mg/kg] | LD50 at 2 weeks [1] [mg/kg] | cell apoptosis (Q2) (HLE cells [2]) [%] | p53 expression and nuclear accumulation (p53) | cells in the S phase (HLE cells [3]) [%] | cells in the G2/M phase (HLE cells [3]) [%] | cells in the G1 phase (HLE cells [3]) [%] |
| --- | --- | --- | --- | --- | --- | --- | --- |
| [Br-].c1ccc(Cn2cc[n+](Cc3ccccc3)c2)cc1 [DBZIM, 1,3-bisbenzylimidazolium bromide] | 50 | 30 to 40 |  |  |  |  |  |
| CC(C)n1cc[n+](C(C)C)c1.F[B-](F)(F)F [DPIM, 1,3-diisopropylimidazolium tetrafluoroborate] | 500 | 300 to 400 |  |  |  |  |  |
| CC(=O)Oc1ccc(C[n+]2ccn(Cc3ccccc3)c2C)cc1.[Cl-] [IBN-19, 1-benzyl-3-(4-acetate-benzyl)-2-methyl-imidazolium chloride] |  |  | 29 | induced p53 expression and accumulation in the nucleus | 19.8 | 23.7 | 29 |
| Cc1ccc(C[n+]2ccn(Cc3ccccc3)c2)cc1.[Cl-] [IBN-24, 1-benzyl-3-(4-methylbenzyl)-imidazolium chloride] |  |  | 29 | induced p53 expression and accumulation in the nucleus | 11.34 | 16.3 | 28.6 |
